Data from patent US20080176909A1, “Methods for prevention and treatment of arteriosclerosis, hypertension and restenosis” (DAIICHI SANKYO COMPANY, LIMITED, priority 2003, published 2008).

Assays:
[1] = test system: cuff-induced vascular damage model of wild-type mice (femoral artery); assay: Cuff-induced vascular injury model: DNA synthesis (BrdU index) and neointima formation; format: in vivo; settings: for effects on blood pressure: azelnidipine 0.1 to 1.0 mg/kg/day, olmesartan 0.5 to 3.0 mg/kg/day
Method: C57BL/6 mice aged 10 weeks were used. In a part of this study, AT1a receptor gene knock out (AT1aKO) mice were also used. Inflammatory vascular damage was induced in mice by loosely placing a polyethylene tube which was cut longitudinally to open the tube, around the femoral artery of mice. In the damaged artery, the following observations were determined. The usefulness of this model of vascular damage to analyze vascular remodeling has been previously reported (Physiol. Genomics., 2, pp. 13-30, 2000; Circulation, 104, pp. 2716-2721, 2001; Circulation, 106, pp. 847-853, 2002).
A paraffin-embedded section of the damaged artery was prepared 14 days after cuff placement, Elastica van Gieson staining was carried out, and the cross-sectional area of the neointima and tunica media of the blood vessels was determined by image analysis software. For quantification of DNA synthesis, bromodeoxyuridine (BrdU) was injected into the mice 7 days after cuff placement and BrdU index calculated from incorporation into the nuclei of the cells was calculated.
(§1) (3) Olmesartan, an AT1 receptor blocker, was intraperitoneally injected into wild-type mice by an osmotic minipump, and the dose-dependency of olmesartan was investigated as described in (2). Oral administration of azelnidipine to the wild-type mice was started after cuff placement, and dose-dependency of azelnidipine was investigated as described in (2). (4) Both olmesartan and azelnidipine were simultaneously administered to wild-type mice, and the effects of co-administration of olmesartan and azelnidipine were compared with those of administration of either olmesartan or azelnidipine alone as described in (2). Effects of olmesartan and azelnidipine were investigated at effective doses of either olmesartan or azelnidipine alone and at insufficient doses to elicit significant effects by either olmesartan or azelnidipine alone, so as to determine synergistic effects of these two agents. (5) By using cultured rat vascular smooth muscle cells, the effects of co-treatment of olmesartan and azelnidipine on facilitation of DNA synthesis following stimulation by angiotensin II (determined by incorporation of [^3H]thymidine) were investigated.

[2] = test system: cultured rat vascular smooth muscle cells; assay: DNA synthesis ([3H]thymidine incorporation) following stimulation by angiotensin II; format: cell-based; settings: for DNA synthesis of cultured rat vascular smooth muscle cells: low doses, alone or co-administered
From the text: as §1

[3] = test system: apolipoprotein E (ApoE) knock out mice; assay: Antihypertensive effects, systolic blood pressure on high fatty diet; format: in vivo; settings: for Systolic blood pressures: 3 mg/kg of each agent oral for 24 weeks, measured 21 to 24 hours after administration in the 23rd week, mean±S.E.; for hypotensive effects: 3 mg/kg of each agent, Dunnett's multiple comparison test
Method: Male apolipoprotein E (ApoE) knock out mice aged 12 weeks were divided into 4 groups (15 mice per group) as following: control group (0.5% carboxymethylcellulose (CMC) solution administered group), olmesartan medoxomil (3 mg/kg) administered group, azelnidipine (3 mg/kg) administered group, and olmesartan medoxomil (3 mg/kg) plus azelnidipine (3 mg/kg) administered group. Either test substance or vehicle (0.5% CMC solution) was orally administered to animals for 24 successive weeks. A high fatty diet (containing 0.15% cholesterol and 15% unsalted butter) was given to all mice in all groups following the start of test agent administration (12 weeks of age). The systolic blood pressure of all mice was measured by a non-preheating type blood pressure monitor (BP MONITOR FOR RATS & MICE, Model MK-2000, Muromachi Kikai Co., Ltd.) at 21 to 24 hours after drug administration in the 23rd week. The results are shown in Table 3 (values in the table indicate mean±S.E.).

[4] = low doses: 0.1 mg/kg/day azelnidipine, 0.5 mg/kg/day olmesartan, alone or at the same time

SMILES | effects on blood pressure [1] | increase in DNA synthesis of vascular smooth muscle cells (BrdU index) ([1]; dose range: azelnidipine 0.1 to 1.0 mg/kg/day oral, olmesartan 0.5 to 3.0 mg/kg/day intraperitoneal osmotic minipump, 7 days after cuff placement) | potentiation of neointima formation in the blood vessels ([1]; dose range: azelnidipine 0.1 to 1.0 mg/kg/day oral, olmesartan 0.5 to 3.0 mg/kg/day intraperitoneal osmotic minipump, 14 days after cuff placement) | increase in DNA synthesis of vascular smooth muscle cells (BrdU index) [1, 4] | potentiation of neointima formation in the blood vessels [1, 4] | facilitation of DNA synthesis following stimulation by angiotensin II ([2]; concentration dependence, [3H]thymidine incorporation) | DNA synthesis of cultured rat vascular smooth muscle cells [2] | Systolic blood pressures [3] | hypotensive effects [3]
CC1=C(C(=O)OC(C)C)C(c2cccc([N+](=O)[O-])c2)C(C(=O)OC2CN(C(c3ccccc3)c3ccccc3)C2)=C(N)N1 (racemic) [Azelnidipine, (±)-2-amino-1,4-dihydro-6-methyl-4-(3-nitrophenyl)-3,5-pyridine-dicarboxylate-3-(1-diphenylmethylazetidin-3-yl)ester 5-isopropylester] | without any effects on blood pressure | inhibited by azelnidipine in a dose-dependent manner | inhibited by azelnidipine in a dose-dependent manner | did not elicit any significant effects | did not elicit any significant effects | suppressed by administration of azelnidipine in a concentration-dependent manner | insufficient to elicit any effects alone | 127 ± 4 mmHg | did not elicit any significant effects
CCCc1nc(C(C)(C)O)c(C(=O)OCc2oc(=O)oc2C)n1Cc1ccc(-c2ccccc2-c2nnn[nH]2)cc1 [Olmesartan medoxomil, (5-methyl-2-oxo-1,3-dioxolen-4-yl)methyl 4-(1-hydroxy-1-methylethyl)-2-propyl-1-[[2′-(1H-tetrazol-5-yl)biphenyl-4-yl]methyl]imidazol-5-carboxylate] | without any effects on blood pressure | – | – | did not elicit any significant effects | did not elicit any significant effects | – | insufficient to elicit any effects alone | 121 ± 4 mmHg | did not elicit any significant effects
